What was measured:
MAP kinase p38 = MAP kinase p38 (Homo sapiens, UniProt O15264+Q15759+Q16539+P53778); experiment: Inhibition of p38 MAPK (unknown origin) using ATF2 as substrate measured after 15 by ELISA
MCF7 [1] = experiment: Antiproliferative activity against human MCF7 cells after 3 days by MTT assay; format: functional, cell-based; conditions: MCF7, 72 h
MCF7 [2] = experiment: Potency index, ratio of Doxorubicin IC50 to compound IC50 against human MCF7 cells; format: functional
MCF7 [3] = experiment: Induction of apoptosis in human MCF7 cells assessed as viable cells after 24 hrs by Annexin-V/propidium iodide staining based FACS analysis (reference value: 92.7%); format: functional
MCF7 [4] = experiment: Induction of apoptosis in human MCF7 cells assessed as necrotic cells after 24 hrs by Annexin-V/propidium iodide staining based FACS analysis (reference value: 0.3%); format: functional
MCF7 [5] = experiment: Cell cycle arrest in human MCF7 cells assessed as accumulation at S phase after 24 hrs by propidium iodide staining-based flow cytometric method (reference value: 25.1%); format: functional
MCF7 [6] = experiment: Induction of apoptosis in human MCF7 cells assessed as early apoptotic cells after 24 hrs by Annexin-V/propidium iodide staining based FACS analysis (reference value: 2.7%); format: functional
MCF7 [7] = experiment: Induction of apoptosis in human MCF7 cells assessed as late apoptotic cells after 24 hrs by Annexin-V/propidium iodide staining based FACS analysis (reference value: 4.3%); format: functional
MCF7 [8] = experiment: Induction of apoptosis in human MCF7 cells assessed as increase in caspase9 level at 0.007 uM after 24 hrs by ELISA; format: functional
MCF7 [9] = experiment: Cell cycle arrest in human MCF7 cells assessed as accumulation at G2 phase after 24 hrs by propidium iodide staining-based flow cytometric method (reference value: 6.4%); format: functional
MCF7 [10] = experiment: Induction of apoptosis in human MCF7 cells assessed as increase in caspase3 level at 0.007 uM after 24 hrs by ELISA; format: functional
MCF7 [11] = experiment: Cell cycle arrest in human MCF7 cells assessed as accumulation at G1 phase after 24 hrs by propidium iodide staining-based flow cytometric method (reference value: 67.2%); format: functional

COc1ccc(C2C=C(c3c(C)oc4c(OC)c5occc5c(OC)c4c3=O)ON2)cc1OC (centres undefined)
IC50 (MAP kinase p38): 1.09 µM
IC50 (MCF7 [1]): 50 nM

COc1c2occc2c(OC)c2c(=O)c(-c3cc(-c4ccc(F)cc4)[nH]c(=O)n3)c(C)oc12
IC50 (MCF7 [1]): 80 nM

COc1ccc(-c2cc(-c3c(C)oc4c(OC)c5occc5c(OC)c4c3=O)nc(=O)[nH]2)cc1OC
IC50 (MCF7 [1]): 80 nM

COc1c2ccoc2cc2oc(C)c(-c3cc(-c4ccc(F)cc4)c(C#N)c(=O)[nH]3)c(=O)c12
IC50 (MAP kinase p38): 0.23 µM
IC50 (MCF7 [1]): 30 nM

COc1c2occc2c(OC)c2c(=O)c(C3=NN(C(C)=O)C(c4ccc(F)cc4)C3)c(C)oc12 (centres undefined)
IC50 (MCF7 [1]): 150 nM

COc1ccc(-c2cc(-c3c(C)oc4c(OC)c5occc5c(OC)c4c3=O)[nH]c(=N)c2C#N)cc1OC
IC50 (MAP kinase p38): 0.31 µM
IC50 (MCF7 [1]): 10 nM

COc1ccc(-c2cc(-c3c(C)oc4c(OC)c5occc5c(OC)c4c3=O)nc(=S)[nH]2)cc1OC
IC50 (MAP kinase p38): 1.39 µM
IC50 (MCF7 [1]): 50 nM

COc1ccc(-c2cc(-c3c(C)oc4cc5occc5c(OC)c4c3=O)[nH]c(=O)c2C#N)cc1OC
IC50 (MCF7 [1]): 140 nM

COc1c2occc2c(OC)c2c(=O)c(-c3cc(-c4ccc(F)cc4)c(C#N)c(=N)[nH]3)c(C)oc12
IC50 (MAP kinase p38): 0.63 µM
IC50 (MCF7 [1]): 20 nM

COc1c2occc2c(OC)c2c(=O)c(C3=CC(c4ccc(F)cc4)=C4C(N)=NC=NC4N3)c(C)oc12 (centres undefined)
Ratio IC50 (MCF7 [2]): 3.6
IC50 (MCF7 [1]): 170 nM

COc1c2ccoc2cc2oc(C)c(-c3cc(-c4ccc(F)cc4)c(C#N)c(=N)[nH]3)c(=O)c12
IC50 (MAP kinase p38): 0.19 µM
IC50 (MCF7 [1]): 40 nM

COc1c2occc2c(OC)c2c(=O)c(-c3cc(-c4ccc(F)cc4)[nH]c(=S)n3)c(C)oc12
IC50 (MAP kinase p38): 0.38 µM
IC50 (MCF7 [1]): 20 nM

COc1ccc(-c2cc(-c3c(C)oc4cc5occc5c(OC)c4c3=O)[nH]c(=N)c2C#N)cc1OC
IC50 (MAP kinase p38): 0.72 µM
IC50 (MCF7 [1]): 50 nM

COc1c2occc2c(OC)c2c(=O)c(C3=NN(c4ccccc4)C(c4ccc(F)cc4)C3)c(C)oc12 (centres undefined)
IC50 (MAP kinase p38): 1.09 µM
IC50 (MCF7 [1]): 40 nM

COc1c2occc2c(OC)c2c(=O)c(-c3cc(-c4ccc(F)cc4)c(C#N)c(=O)[nH]3)c(C)oc12
Ratio IC50 (MCF7 [2]): 6
IC50 (MCF7 [1]): 100 nM

COc1c2occc2c(OC)c2c(=O)c(C3=CC(c4ccc(F)cc4)NO3)c(C)oc12 (centres undefined)
IC50 (MAP kinase p38): 0.86 µM
IC50 (MCF7 [1]): 40 nM

COc1ccc(C2CC(c3c(C)oc4c(OC)c5occc5c(OC)c4c3=O)=NN2C(C)=O)cc1OC (centres undefined)
Activity (MCF7 [3]): 64.1%
Activity (MCF7 [4]): 3.3%
Activity (MCF7 [5]): 24.3%
Activity (MCF7 [6]): 17.4%
Activity (MCF7 [7]): 15.2%
Activity (MCF7 [8]): 16.39 ng/mL
Activity (MCF7 [9]): 21.2%
Activity (MCF7 [10]): 446.6 ng/mL
IC50 (MAP kinase p38): 0.67 µM
Activity (MCF7 [11]): 31.2%
IC50 (MCF7 [1]): 7 nM
